# Laboratory results taken from ChEMBL document CHEMBL3507680, “University of Dundee, Gates Library screen for HepG2 cell viability”.
# Assay: Human HepG2 cell viability assay in 384 well format
# Type: toxicity, cell-based
# Set-up: dose 125 nL, time 70.5 hour; concentration not given beside the values
# Settings: HepG2 cells, read-out: Inhibition
row,Structure (SMILES),cytotoxicity at 70.5 h
1,Cc1ccccc1Cn1nnc2cc3c(cc2c1=O)OCCO3,-9.38%
2,Cc1cnn(CC2CCCN2Cc2noc(CC(C)C)n2)c1 (centres undefined),-0.847%
3,c1ncn(CC2CCCN2Cc2cn3ccsc3n2)n1 (centres undefined),-16.9%
4,Cc1noc(C)c1CCCNC(=O)C1CCCN(C(=O)C2CC2)C1 (centres undefined),-0.841%
5,CCCC(C)(O)c1cc(C(N)=O)no1 (centres undefined),-9.46%
6,COc1ccc(CNC(=O)C2=NN(c3ccc(C)cc3)C(=O)CN2)cc1,-5.36%
7,CN(Cc1cccnc1)C[C@H]1OC[C@@H]2CCN(c3ncccn3)C[C@@H]21,-0.858%
8,NC(=O)c1ccc(CNC2CC2)cc1,16%
9,CC(C)N1CCC(NC(=O)NC2CCOc3ccc(Br)cc32)CC1 (centres undefined),0.813%
10,CCc1nc(C2CCCN2Cc2nc(C(C)(C)C)no2)no1 (centres undefined),2.43%
11,COCCCC1CCCCN1C(=O)c1ccc(SCCO)cc1 (centres undefined),6.41%
12,CC(C)CN1CCC2(Cc3ccccc3NC2=O)C1 (centres undefined),-4.52%
13,CCC(C)NC(=O)Nc1ccc(CN2CCOC2=O)cc1 (centres undefined),18.8%
14,Cc1nc(C)n(CC2CCCN2CCc2cccs2)n1 (centres undefined),39.6%
15,CCN1C(=O)C(c2ccccc2)CC12CCN(c1ncccn1)CC2 (centres undefined),-18.6%
16,COCCN1CC[C@]2(CN(C(=O)c3cccs3)C[C@H]2C)C1=O,-10.6%
17,CC(C)(C)n1cc(C(=O)N2CCCN(Cc3cccs3)CC2)cn1,-2.48%
18,Cn1ccc(C(=O)N2CCC(Cc3cnc4[nH]ccc4c3)C2)n1 (centres undefined),-7.96%
19,CN(C)c1cc(CNC(=O)c2cn(-c3ccc(F)cc3)nn2)ccn1,-8.15%
20,CN1[C@H](CN2CCCC2)C[C@@H]2CN(C(=O)Cc3cccs3)CC[C@@H]21,27.9%
21,N#Cc1cc(F)c(NCCCOCC2CCOC2)c(F)c1 (centres undefined),7.98%
22,CN1CCC(NC(=O)NCCNc2ccccn2)CC1,-13.1%
23,Cc1nc(CN2CCCN(CC(=O)Nc3cccnc3)CC2)no1,7.78%

row,Structure (SMILES),cytotoxicity at 70.5 h
1,CC(C)C(=O)NCCNC(=O)C(C)OCC(F)(F)F (centres undefined),-8.9%
2,O=C(c1ccc2[nH]nnc2c1)N1C[C@H](O)[C@]2(CCCO2)C1,-1.24%
3,CN(C)C(=O)COCc1nnc2n1CCN(Cc1ccoc1)C2,-3.1%
4,COC(C)(C)C(=O)N1CCC(c2cc(CN(C)C)n(C)n2)CC1,-10.8%
5,COCCN1CCN(c2ncnc3nc(C)cc(C)c23)CC1,-7.61%
6,CC[C@H]1CN(C(=O)C2CC2)CC[C@H]1CC(=O)NCCN1CCOCC1,-0.373%
7,CC(C)Oc1ccc(C(=O)N2CCCC2c2cnn(C)c2)cn1 (centres undefined),-3%
8,CC(C)Oc1ccc(C(=O)Nc2nncs2)cn1,5.43%
9,CC(C)CC(C(=O)N(C)Cc1ncnn1C)N1CCCCC1=O (centres undefined),-2.2%
10,COc1ccc2c(c1)C1(CCN(Cc3nccs3)CC1)N(C)CC2,5.77%
11,Cc1ccc(NC2(C(=O)NC(C)c3ncn[nH]3)CCCC2)cc1 (centres undefined),6.6%
12,CSC(C)(C)CNC(=O)NC1CCN(CC(F)F)CC1,-1.88%
13,Cc1ccc(-c2cc(CNC(=O)NC3CCCCNC3=O)on2)cc1 (centres undefined),-8.17%
14,CC(C)(O)CN1CCN(C(=O)c2cccn2Cc2ccccc2)CC1,-6.76%
15,c1ccc(OCc2nnc3n2CCN(CC2CC2)C3)nc1,-13.3%
16,COc1nc2c(cc1C(=O)NCc1noc(-c3ccco3)n1)CCC2,-7.17%
17,CC(C)Oc1ccccc1C1CC(=O)Nc2nc(N3CCOCC3)sc21 (centres undefined),-13.2%
18,COc1cc(C2CC(=O)Nc3c2c(=O)[nH]n3C2CCCCC2)ccc1O (centres undefined),-12.4%
19,CS(=O)(=O)N1CCC(C(=O)N2CCN(Cc3cccc(Cl)c3)CC2)CC1,-8.76%
20,CC(C)(NCC(=O)NC(=O)NC1CC1)c1ccc2c(c1)OCO2,-3.04%
21,CN(C)c1nc2sc(C(=O)N3CCN(C(=O)OC(C)(C)C)CC3)cc2s1,-8.07%
22,C=Cc1ccc(C(=O)N2CCCC(Nc3ccc(OC)cc3)C2)cc1 (centres undefined),-7.62%
23,CCC(CC)C(=O)NCc1cn2cc(Br)ccc2n1,-8.77%

row,Structure (SMILES),cytotoxicity at 70.5 h
1,Cc1cnn(CC2CCCCN2C(=O)c2ccc3c(c2)nnn3C)c1 (centres undefined),-1.73%
2,COc1ccc(-c2noc(C(=O)NCCN3CCCCC3)n2)cc1OC,26.1%
3,Cc1ccc(CN2CCN(Cc3ccc4nonc4c3)CC2=O)cc1,1.65%
4,COC(=O)c1cc2c(OC)c(C)c(OC)cc2[nH]1,-9.36%
5,O=C(NC1CC1)N1CCc2ccc(=O)n(Cc3cccnc3)c2CC1,6.33%
6,CC(Cn1cccn1)NC(=O)NCCCN1CCc2ccccc21 (centres undefined),-0.512%
7,Cc1ncc(C(=O)N2CCCC(C(=O)CCc3ccccc3)C2)s1 (centres undefined),-13.8%
8,CC(C)[C@H]1CN(c2ccncc2)C[C@@H]1NC(=O)C1(C#N)CCOCC1,-8.3%
9,O=C(NCc1cnc2n1CCN(CC1CC1)CC2)C1CCC1,-8.49%
10,COCC(=O)N1CCC(c2cc(N(C)C)cc(C)n2)CC1,25.5%
11,O=C1CCC2(CCCN(c3ncc(F)cn3)CC2)N1CC1CC1 (centres undefined),-1.42%
12,OC[C@@H](O)CN(CCC(F)(F)F)c1ncc(Cl)cn1,-4.91%
13,Cc1nc(N2CCOCC2)nc2c1CCN(c1nccs1)CC2,-5.03%
14,OC1(CN2CCC(Cc3ccccc3)CC2)CCC1,-4.49%
15,Cc1ccc(C(=O)O)cc1-c1cccc2c1CCNC2,-21%
16,CCC1c2cccn2CCN1S(=O)(=O)N1CCOCC1 (centres undefined),11.2%
17,CCN1C[C@H]2C3(CCN(S(=O)(=O)CC)CC3)CC[C@@]2(C(=O)N(C)C)C1,-4.85%
18,CCn1cc(NS(=O)(=O)c2ccc(Br)s2)c(C(=O)NCC(C)C)n1,-0.598%
19,CS(=O)(=O)N1CCCC1CS(=O)(=O)c1ccccc1 (centres undefined),-11.6%
20,NS(=O)(=O)c1cnn(CCC(=O)N(Cc2ccccc2)C2CC2)c1,-7.26%
21,O=C(CCc1ccc(-n2cnnn2)cc1)Nc1ccncc1,-7.21%
22,CC(CNC(=O)NCCCc1cc(N)n(-c2ccccc2)n1)N(C)C (centres undefined),-8.44%
23,CNc1ccc(CC2CCCN(C(=O)c3c(C)noc3C)C2)nn1 (centres undefined),-13.8%

row,Structure (SMILES),cytotoxicity at 70.5 h
1,Cn1cc(C(=O)CC2CCCN2C(=O)c2ccc(Cl)o2)cn1 (centres undefined),2.73%
2,COc1ccc(NC(=O)N2CCN(c3ncccn3)CC2)cn1,-5.14%
3,CCN(Cc1nc2c(cnn2C)c(=O)[nH]1)Cc1ccccc1C,1.06%
4,NC(=O)Nc1cccc(CNC(=O)CCCOCc2ccccc2)c1,2.63%
5,COCCOC[C@]1(CNC(=O)c2ccc(OC)cc2)C[C@@H](O)[C@@H](O)C1,-4.22%
6,COc1c(F)cc(CN2CCC3(CC2)C(C(=O)O)CC(=O)N3C)cc1Cl (centres undefined),-3.91%
7,Cc1cccc(CNc2cc(C3CCCNC3)ccn2)n1 (centres undefined),-7.94%
8,Cc1noc(C(C)C)c1C(=O)NCCCN1CCCC1,-6.55%
9,O=C(Cc1cccs1)NCC(=O)Nc1cn[nH]c1,-11.9%
10,CCCn1c(=O)n(CCC(=O)N(C)Cc2ccc(C)o2)c2ccccc21,-4.98%
11,Cc1ccn2c(F)c(C(=O)N3CCC4(CCC(=O)N(C)C4)CC3)nc2c1,-10.1%
12,Cc1cnccc1N1CCN(C(=O)C2CC3(CCNCC3)CN2)CC1 (centres undefined),-5.99%
13,O=C(c1cccnc1Oc1ccccc1)N1CCCn2ncnc21,4.54%
14,COCCO[C@@H]1CCN(C(=O)c2ccc[nH]2)[C@H]1Cc1cnn(C)c1,-7.64%
15,CN1CCc2nc(C3CCCN(C(=O)CC(C)(C)C)C3)ncc2C1 (centres undefined),-6.36%
16,CCN(C)c1ccc(CNS(=O)(=O)CC2CCCO2)cc1F (centres undefined),-16%
17,Cc1nnc(N2C[C@@H]3CCCO[C@@H]3[C@H](N(C)C)C2)s1,26.3%
18,O=C(CCCn1cncn1)N1CCC2(CCCN(CC3CC3)C2=O)C1 (centres undefined),18.3%
19,CCN(C)C(=O)c1ncn2c(C3CCN(S(C)(=O)=O)CC3)ccnc12,-5.47%
20,CC(C)(C(=O)NCC(N)=O)c1ccccc1F,-5.2%
21,Cc1cccc2c1cnn2CCCNC(=O)CCCC(=O)O,-4.18%
22,CN[C@H]1CC[C@]2(CC1)CNC(=O)c1cc(C)ccc1O2,-8.44%
23,CCOCCNC(=O)c1cccc(S(=O)(=O)NC[C@@H]2C[C@H](F)CN2)c1,31.3%

row,Structure (SMILES),cytotoxicity at 70.5 h
1,Cc1noc(C)c1CNC(=O)c1cn(CCC2CCCCN2)nn1 (centres undefined),-0.767%
2,CN1CC2(CCN(C(=O)C3CCC3)CC2)COc2ccccc2S1(=O)=O,-4.42%
3,CN(C)c1cnn(CC(=O)N2CCN(Cc3cccs3)CC2)c(=O)c1,-8.39%
4,Cc1nn(C)c(Cl)c1CNCc1cccnc1N1CCN(C)CC1,2.87%
5,COCCNC(=O)C[C@@H]1COC[C@H]2CN(C(=O)COC)C[C@@H]12,-8.18%
6,Cc1ccc(C(=O)N2C[C@H](OCc3cccnc3)[C@H]3COC[C@H]32)cn1,-2.21%
7,CCc1nc2c(c(NC3CC3)n1)CCN(C(=O)N1CCN(C)CC1)CC2,-19.1%
8,CCCc1nnc(N2CCC3(CC2)CN(C)C(=O)O3)o1,2.82%
9,Cc1cnc(C(=O)N2CC(=O)N(c3ccccc3Cl)CC2C)cn1 (centres undefined),-6.52%
10,Nc1nc2c(c(=O)[nH]1)CCN(C(=O)c1ccccc1N1CCCC1)C2,0.043%
11,O=C(c1cnn2c1OCCC2)N1CCC(Cc2ccccc2)CC1,29.6%
12,CC(Cn1cccn1)n1cnc2ccc(F)cc2c1=O (centres undefined),-7.83%
13,CC(=O)N1CCNCC1c1cccc(C(=O)N(C)C)c1 (centres undefined),-8.36%
14,CC(CC#N)N(C)Cc1ccccc1Cl (centres undefined),-7.77%
15,CCCc1nc(CNc2ccc(F)c(F)c2)no1,14.6%
16,COCCNC(=O)N1CCN(C(=O)c2nsc3ccc(C)cc23)CC1,-17.5%
17,CC(CCN(C)C)NC(=O)N1CCSC(C)(C)C1 (centres undefined),-1.34%
18,CCOCC1CN(C(=O)c2ccoc2)Cc2nn(C)cc21 (centres undefined),-6.29%
19,O[C@@H]1CN(Cc2cccnc2)C[C@H]1Oc1ccccc1,0.823%
20,O=C(CN1CCCC1CC(=O)c1ccccc1)NCc1ccccn1 (centres undefined),4.93%
21,CCOc1ccccc1NC(=O)Nc1cc(N2CCCC2)ncn1,1.9%
22,CCS(=O)(=O)N1CCc2ccc(NC(=O)Nc3cccc(F)c3)cc21,33%
